According to patent publication US8889705B2, “Noscapine analogs and their use in treating cancers” (Emory University, priority 2007, dated 2014):
Read-outs that look alike come from different tables or passages of the source.

Tests used:
MDA-MB-231 cells [1] = assay: Sulforhodamine B cell proliferation assay; format: cell-based; conditions: Homo sapiens; MDA-MB-231, 72 hours, SRB
Description: (§1) Sulforhodamine B (SRB) assay: The cell proliferation assay was performed in 96-well plates as described previously. Adherent cells (MCF-7 and MDA-MB-231) were seeded in 96-well plates at a density of 5×10^3 cells per well. They were treated with increasing concentrations of the halogenated analogs the next day while in log-phase growth. After 72 hours of drug treatment, cells were fixed with 50% trichloroacetic acid and stained with 0.4% sulforhodamine B dissolved in 1% acetic acid. After 30 minutes, cells were then washed with 1% acetic acid to remove the unbound dye. The protein-bound dye was extracted with 10 mM Tris base to determine the optical density at 564-nm wavelength.

tubulin [2] = molecular target: T1, tubulin; conditions: values with literature reference [18], [12], [43]; read-out: dissociation constant (Kd) for binding to tubulin; cited from earlier work
T1 construct: other: 2 μM tubulin, 45 min at 37° C., double reciprocal plot; rate and extent of tubulin polymerization; other: 25 μM or 100 μM

MCF-7 cells [3] = assay: Sulforhodamine B cell proliferation assay; format: cell-based, human; conditions: for IC50: MCF-7, 72 hours, SRB
Description: as §1

tubulin [4] = molecular target: T1, tubulin; assay: Tubulin binding assay (fluorescence titration, quenching of intrinsic tubulin fluorescence); design: species or system mammalian; conditions: 2 μM tubulin, 45 min at 37° C., double reciprocal plot; read-out: dissociation constant (Kd) for binding to tubulin
Description: Fluorescence titration for determining the tubulin binding parameters was performed as described previously (Gupta and Panda, 2002). In brief, 9-nitro-nos (0-100 μM) was incubated with 2 μM tubulin in 25 mM PIPES, pH 6.8, 3 mM MgSO4 and 1 mM EGTA for 45 min at 37° C. The relative intrinsic fluorescence intensity of tubulin was then monitored in a JASCO FP-6500 spectrofluorometer (JASCO, Tokyo, Japan) using a cuvette of 0.3-cm path length, and the excitation wavelength was 295 nm. The fluorescence emission intensity of 9-nitro-nos at this excitation wavelength was negligible. A 0.3-cm path-length cuvette was used to minimize the inner filter effects caused by the absorbance of 9-nitro-nos at higher concentration ranges. In addition, the inner filter effects were corrected using a formula Fcorrected=Fobserved·antilog [(Aex+Aem)/2], where Aex is the absorbance at the excitation wavelength and Aem is the absorbance at the emission wavelength. The dissociation constant (Kd) was determined by the formula: 1/B=Kd/[free ligand]+1, where B is the fractional occupancy and [free ligand] is the concentration of free noscapine or 9-nitro-nos. The fractional occupancy (B) was determined by the formula B=ΔF/ΔFmax, where ΔF is the change in fluorescence intensity when tubulin and its ligand are in equilibrium and ΔFmax is the value of maximum fluorescence change when tubulin is completely bound with its ligand. ΔFmax was calculated by plotting 1/ΔF versus 1/ligand using total ligand concentration as the first estimate of free ligand concentration.
Fluorescence titration for determining the tubulin binding parameters was performed as described previously. In brief, 9-F-nos, 9-Cl-nos, 9-Br-nos or 9-I-nos (0-100 μM) was incubated with 2 μM tubulin in 25 mM PIPES, pH 6.8, 3 mM MgSO4, and 1 mM EGTA for 45 min at 37° C. The relative intrinsic fluorescence intensity of tubulin was then monitored in a JASCO FP-6500 spectrofluorometer (JASCO, Tokyo, Japan) using a cuvette of 0.3-cm path length, and the excitation wavelength was 295 nm. The fluorescence emission intensity of noscapine and its derivatives at this excitation wavelength was negligible. A 0.3-cm path-length cuvette was used to minimize the inner filter effects caused by the absorbance of these agents at higher concentration ranges. In addition, the inner filter effects were corrected using a formula F corrected=F observe·antilog [(Aex+Aem)/2], where Aex is the absorbance at the excitation wavelength and Aem is the absorbance at the emission wavelength. The dissociation constant (Kd) was determined by the formula: 1/B=Kd/[free ligand]+1, where B is the fractional occupancy and [free ligand] is the concentration of 9-F-nos, 9-Cl-nos, 9-Br-nos or 9-I-nos. The fractional occupancy (B) was determined by the formula B=ΔF/ΔFmax, where ΔF is the change in fluorescence intensity when tubulin and its ligand are in equilibrium and ΔFmax is the value of maximum fluorescence change when tubulin is completely bound with its ligand. ΔFmax was calculated by plotting 1/ΔF versus 1/[free ligand].

MCF-7 cells [5] = assay: Cell cycle analysis (propidium iodide, flow cytometry); format: cell-based, human; conditions: for G0/G1 / G2/M / S / Sub-G1: MCF-7, 25 μM, mean ± S.E.M.; for percent sub-G1 cells compared with noscapine: MCF-7, lower doses (5 μM and 10 μM), 72 hours
Description: The flow cytometric evaluation of the cell cycle status was performed as described previously. Briefly, 2×10^6 cells were centrifuged, washed twice with ice-cold PBS, and fixed in 70% ethanol. Tubes containing the cell pellets were stored at 4° C. for at least 24 hours. Cells were then centrifuged at 1000×g for 10 min and the supernatant was discarded. The pellets were washed twice with 5 ml of PBS and then stained with 0.5 ml of propidium iodide (0.1% in 0.6% Triton-X in PBS) and 0.5 ml of RNase A (2 mg/ml) for 45 minutes in dark. Samples were then analyzed on a FACSCalibur flow cytometer (Beckman Coulter Inc., Fullerton, Calif.).

CEM cells = assay: In vitro cell proliferation MTS assay; format: cell-based; conditions: Homo sapiens, CCRF-CEM, 72 hours
Description: (§2) Suspension cells (CEM, CEMNLB100 and CEM/VM-1-5) were cultured in RPMI-1640 media containing 10% FBS and then seeded into 96-well plates at a density of 5×10^3 cells per well and were treated with increasing gradient concentrations of 9-nitro-nos for 72 hours. Measurement of cell proliferation was performed colorimetrically by 3-(4,5-dimethylthiazol-2-yl)-5-(3-carboxymethoxyphenyl)-2-(4-sulphophenyl)-2H-tetrazolium, inner salt (MTS) assay, using the CellTiter96 AQueous One Solution Reagent (Promega, Madison, Wis.). Cells were exposed to MTS for 3 hours and absorbance was measured using a microplate reader (Molecular Devices, Sunnyvale, Calif.) at an optical density (OD) of 490 nm. The percentage of cell survival as a function of drug concentration for both the assays was then plotted to determine the IC50 value, which stands for the drug concentration needed to prevent cell proliferation by 50%.
as §2, with “(CEM)” for “(CEM, CEMNLB100 and CEM/VM-1-5)”, “were” for “were cultured in RPMI-1640 media containing 10% FBS and then”, “increasing” for “increasing gradient”, “all halogenated analogs” for “9-nitro-nos”

MDA-MB-231 cells [6] = assay: DAPI staining, cell morphology by fluorescence microscopy; format: cell-based, human; conditions: 25 μM, 72 hours
Description: Cell morphology was evaluated by fluorescence microscopy following DAPI staining (Vectashield, Vector Labs, Inc., Burlingame, Calif.). MDA-MB-231 cells were grown on poly-L-lysine coated coverslips in 6-well plates and were treated with the halogenated analogs at 25 μM for 72 hours. After incubation, coverslips were fixed in cold methanol and washed with PBS, stained with DAPI, and mounted on slides. Images were captured using a BX60 microscope (Olympus, Tokyo, Japan) with an 8-bit camera (Dage-MTI, Michigan City, Ind.) and IP Lab software (Scanalytics, Fairfax, Va.). Apoptotic cells were identified by features characteristic of apoptosis (e.g. nuclear condensation, formation of membrane blebs and apoptotic bodies).

IC50 (MDA-MB-231 cells [1]) [µM] | IC50 (MCF-7 cells [3]; Homo sapiens, MCF7, 72 h) [µM] | Kd (tubulin [4]) [µM] | SMILES | G0/G1 (MCF-7 cells [5]; 0 h) [%] | G2/M (MCF-7 cells [5]; 0 h) [%] | S (MCF-7 cells [5]; 0 h) [%] | Sub-G1 (MCF-7 cells [5]; 0 h) [%] | G0/G1 (MCF-7 cells [5]; 24 h) [%] | G2/M (MCF-7 cells [5]; 24 h) [%] | S (MCF-7 cells [5]; 24 h) [%] | Sub-G1 (MCF-7 cells [5]; 24 h) [%] | G0/G1 (MCF-7 cells [5]; 48 h) [%] | G2/M (MCF-7 cells [5]; 48 h) [%] | S (MCF-7 cells [5]; 48 h) [%] | Sub-G1 (MCF-7 cells [5]; 48 h) [%] | G0/G1 (MCF-7 cells [5]; 72 h) [%] | G2/M (MCF-7 cells [5]; 72 h) [%] | S (MCF-7 cells [5]; 72 h) [%] | Sub-G1 (MCF-7 cells [5]; 72 h) [%] | IC50 (CEM cells) [nM] | other results
3.3 ± 0.4 | 1 ± 0.2 | 54 ± 9.1 | COc1ccc2c(c1OC)C(=O)O[C@@H]2[C@H]1c2c(c(Br)c3c(c2OC)OCO3)CCN1C [9-Br-nos, (S)-6,7-dimethoxy-3-((R)-4-methoxy-6-methyl-9-bromo-5,6,7,8-tetrahydro-[1,3]dioxolo[4,5-g]isoquinolin-5-yl)isobenzofuran-1(3H)-one] | 53.3 ± 2.8 | 28.9 ± 4.4 | 12.7 ± 1.8 | 0.2 ± 0.1 | 10.4 ± 1.8 | 61.9 ± 3.6 | 3.4 ± 1.2 | 6.9 ± 2.4 | 6.5 ± 2.5 | 43.8 ± 3.4 | 2.8 ± 0.7 | 35.1 ± 3.5 | 4.6 ± 2.1 | 33.7 ± 3.5 | 2.4 ± 1.6 | 49.6 ± 2.7 | 1900 ± 200 | Kd (tubulin [2]): 54 ± 9.1 µM; fold higher cytotoxic activity than noscapine (MCF-7 cells [3]; MCF-7, ratio of IC50): ~40 fold; percent sub-G1 cells compared with noscapine (MCF-7 cells [5]): higher; nuclear morphology (features of apoptotic cells), DAPI (MDA-MB-231 cells [6]): condensed chromosomes, numerous fragmented micronuclei, and apoptotic bodies are evident
1.9 ± 0.3 | 1.9 ± 0.3 | 40 ± 8 | COc1ccc2c(c1OC)C(=O)OC2C1c2c(c(Cl)c3c(c2OC)OCO3)CCN1C (stereo not shown) [9-Cl-nos] | 69 ± 5.6 | 20.7 ± 3.4 | 7.5 ± 1.6 | 1.4 ± 0.5 | 11.5 ± 2.7 | 59.7 ± 5.2 | 4.3 ± 1.4 | 15.3 ± 2.5 | 8 ± 3.3 | 42.4 ± 3.8 | 4 ± 1.1 | 37.8 ± 3.2 | 5.9 ± 1.9 | 35.3 ± 3.9 | 4.1 ± 1.4 | 50.2 ± 2.5 | 1200 ± 300 | Kd (tubulin [2]): 40 ± 8 µM; IC50 (MCF-7 cells [3]): 3.5 ± 0.4 µM; percent sub-G1 cells compared with noscapine (MCF-7 cells [5]): higher; nuclear morphology (features of apoptotic cells), DAPI (MDA-MB-231 cells [6]): condensed chromosomes, numerous fragmented micronuclei, and apoptotic bodies are evident
8.2 ± 0.6 | 3.3 ± 0.8 | 81 ± 8 | COc1ccc2c(c1OC)C(=O)O[C@@H]2[C@H]1c2c(c(F)c3c(c2OC)OCO3)CCN1C [9-F-nos, (S)-6,7-dimethoxy-3-((R)-4-methoxy-6-methyl-9-fluoro-5,6,7,8-tetrahydro-[1,3]dioxolo[4,5-g]isoquinolin-5-yl)isobenzofuran-1(3H)-one] | 67.7 ± 5.6 | 18.5 ± 2.2 | 11.9 ± 1.5 | 0.2 ± 0.04 | 10.8 ± 2.4 | 65.9 ± 4.4 | 3.8 ± 1.1 | 6.8 ± 2.1 | 7.9 ± 2.8 | 43.7 ± 2.9 | 3.5 ± 0.8 | 34.5 ± 2.5 | 5.2 ± 2.2 | 34.4 ± 3.4 | 3.6 ± 1.5 | 48.6 ± 3.3 | 2300 ± 700 | percent sub-G1 cells compared with noscapine (MCF-7 cells [5]): higher; nuclear morphology (features of apoptotic cells), DAPI (MDA-MB-231 cells [6]): condensed chromosomes, numerous fragmented micronuclei, and apoptotic bodies are evident
25.6 ± 2.4 | 45.6 ± 3.1 | 22 ± 4 | COc1ccc2c(c1OC)C(=O)O[C@@H]2[C@H]1c2c(c(I)c3c(c2OC)OCO3)CCN1C [9-I-nos, (S)-6,7-dimethoxy-3-((R)-4-methoxy-6-methyl-9-iodo-5,6,7,8-tetrahydro-[1,3]dioxolo[4,5-g]isoquinolin-5-yl)isobenzofuran-1(3H)-one] | 60.6 ± 4.6 | 23.1 ± 3.7 | 13.9 ± 2.3 | 0.3 ± 0.2 | 17 ± 2.3 | 44.5 ± 5.1 | 3.1 ± 1.3 | 7.7 ± 1.7 | 15.4 ± 4.5 | 25.9 ± 4.1 | 2.9 ± 0.6 | 28.1 ± 3.1 | 17 ± 1.9 | 20.7 ± 2.2 | 4.9 ± 2.2 | 30.1 ± 3.1 | 38900 ± 3500 | nuclear morphology (features of apoptotic cells), DAPI (MDA-MB-231 cells [6]): condensed chromosomes, numerous fragmented micronuclei, and apoptotic bodies are evident
